Broadly, the IC50 is the concentration needed to halve the response being measured. Lower therefore signals greater potency. In general, kinact refers to the maximal first-order rate at which the target is inactivated.

Assay [1] concerns the target T1, SARS-CoV-2 3CL^pro (Severe acute respiratory syndrome coronavirus 2, UniProt P0DTD1). In words: biochemical.
Assay [2] concerns the target T1, SARS-CoV-2 3CL^pro. Put plainly: Inactivation kinetic analyses against SARS-CoV-2 3CL^pro. In kind it is biochemical.
Setting [3] is: IC50 (μM) 3 min, 3 min preincubation.
Setting [4] is: IC50 (μM) 63 min, 63 min preincubation.

Consider `COc1ccc(-c2cc(=O)c3c(O)cc(O)c(-c4cc(-c5cc(=O)c6c(O)cc(O)cc6o5)ccc4OC)c3o2)cc1` [isoginkgetin], for which, at SARS-CoV-2 3CL^pro [1], the Ratio turned out to be 2.01. Besides, the IC50 against SARS-CoV-2 3CL^pro [1] (setting [3]) was 70.8 µM; against SARS-CoV-2 3CL^pro [1] (setting [4]), 35.2 µM.

`O=c1cc(-c2ccc(O)c(-c3c(O)cc(O)c4c(=O)cc(-c5ccc(O)cc5)oc34)c2)oc2cc(O)cc(O)c12` [amentoflavone]: the Ratio on SARS-CoV-2 3CL^pro [1] is 1.92. For the same molecule, the IC50 against SARS-CoV-2 3CL^pro [1] (setting [3]) was found to be 82.1 µM; on SARS-CoV-2 3CL^pro [1] (setting [4]), 42.9 µM.

On to `COc1ccc(-c2cc(=O)c3c(O)cc(O)cc3o2)cc1-c1c(O)cc(O)c2c(=O)cc(-c3ccc(O)cc3)oc12` [bilobetin], for which the Ratio at SARS-CoV-2 3CL^pro [1] was 3.54. The IC50 on SARS-CoV-2 3CL^pro [1] (setting [3]) came to 32.1 µM; against SARS-CoV-2 3CL^pro [1] (setting [4]), 9.06 µM.

As for `COc1cc(O)c2c(=O)cc(-c3ccc(OC)c(-c4c(O)cc(O)c5c(=O)cc(-c6ccc(O)cc6)oc45)c3)oc2c1` [ginkgetin], the Ratio on SARS-CoV-2 3CL^pro [1] was 10.32. Besides, the IC50 was found to be 76.5 µM against SARS-CoV-2 3CL^pro [1] (setting [3]) and 7.42 µM against SARS-CoV-2 3CL^pro [1] (setting [4]).

For the molecule `O=c1cc(-c2ccc(O)c(O)c2)oc2cc(O)cc(O)c12` [luteolin], the Ratio at SARS-CoV-2 3CL^pro [1] came to 10.57. In addition, the IC50 came to 195 µM at SARS-CoV-2 3CL^pro [1] (setting [3]) and 18.4 µM against SARS-CoV-2 3CL^pro [1] (setting [4]).

On to `Oc1cc(O)c2c(c1)O[C@H](c1cc(O)c(O)c(O)c1)[C@@H](O)C2` [gallocatechin], for which the Ki at SARS-CoV-2 3CL^pro [2] is 2520 nM. For the same molecule, the kinact on SARS-CoV-2 3CL^pro [2] (read-out: Kinact (min^−1)) is 0.03 min⁻¹. Also, the Ratio on SARS-CoV-2 3CL^pro [1] is 3.30. Moreover, the values for the IC50 on SARS-CoV-2 3CL^pro [1] (setting [3]) and on SARS-CoV-2 3CL^pro [1] (setting [4]) were 3.23 µM and 0.98 µM, respectively.

On to `Oc1cc(O)c2c(c1)O[C@H](c1ccc(O)c(O)c1)[C@H](O)C2` [epicatechin], for which the Ratio at SARS-CoV-2 3CL^pro [1] is 6.22. Also, the IC50 against SARS-CoV-2 3CL^pro [1] (setting [3]) is 70.6 µM; at SARS-CoV-2 3CL^pro [1] (setting [4]) it was 11.3 µM.

As for `O=c1cc(-c2ccc(O)cc2)oc2cc(O)cc(O)c12` [apigenin], the Ratio at SARS-CoV-2 3CL^pro [1] is 3.62. Also, the IC50 was 115 µM against SARS-CoV-2 3CL^pro [1] (setting [3]) and 31.7 µM against SARS-CoV-2 3CL^pro [1] (setting [4]).

These data come from PMC10052880 (Phytomedicine, 2023).
